Values of other authors in patent US11103547B2, “Methods for disrupting biofilms” (priority 2016, dated 2021).

Test system: MRSA biofilm
Conditions: shown previously; positive control

SMILES: CCCCCCCCCC(=O)N[C@@H](Cc1c[nH]c2ccccc12)C(=O)N[C@H](CC(N)=O)C(=O)N[C@@H](CC(=O)O)C(=O)N[C@@H]1C(=O)NCC(=O)N[C@@H](CCCN)C(=O)N[C@@H](CC(=O)O)C(=O)N[C@H](C)C(=O)N[C@@H](CC(=O)O)C(=O)NCC(=O)N[C@H](CO)C(=O)N[C@@H]([C@H](C)CC(=O)O)C(=O)N[C@@H](CC(=O)c2ccccc2N)C(=O)O[C@@H]1C [Daptomycin]
- disruption of biomass biofilm of MRSA: disrupt biomass biofilm of MRSA
